ChEMBL document CHEMBL3351812, “Discovery and SAR of a novel series of metabotropic glutamate receptor 5 positive allosteric modulators with high ligand efficiency” (Bioorg Med Chem Lett, 2014)
Activity calls are given as the source filed them. No cut-off for these calls is given here.

Legend:
[1] = target: Metabotropic glutamate receptor 5 (Rattus norvegicus, UniProt P31424); experiment: (§1) Positive allosteric modulation of rat mGlu5 receptor expressed in HEK293 cells; type: cell-based
[2] = target: Metabotropic glutamate receptor 5 (Rattus norvegicus) (UniProt P31424); experiment: Positive allosteric modulation of rat mGlu5 receptor expressed in HEK293 cells relative to glutamate; type: cell-based; design: concentration or dose not given beside the values
Chain of Metabotropic glutamate receptor 5 (Rattus norvegicus) (P31424 21-1203 limits assumed): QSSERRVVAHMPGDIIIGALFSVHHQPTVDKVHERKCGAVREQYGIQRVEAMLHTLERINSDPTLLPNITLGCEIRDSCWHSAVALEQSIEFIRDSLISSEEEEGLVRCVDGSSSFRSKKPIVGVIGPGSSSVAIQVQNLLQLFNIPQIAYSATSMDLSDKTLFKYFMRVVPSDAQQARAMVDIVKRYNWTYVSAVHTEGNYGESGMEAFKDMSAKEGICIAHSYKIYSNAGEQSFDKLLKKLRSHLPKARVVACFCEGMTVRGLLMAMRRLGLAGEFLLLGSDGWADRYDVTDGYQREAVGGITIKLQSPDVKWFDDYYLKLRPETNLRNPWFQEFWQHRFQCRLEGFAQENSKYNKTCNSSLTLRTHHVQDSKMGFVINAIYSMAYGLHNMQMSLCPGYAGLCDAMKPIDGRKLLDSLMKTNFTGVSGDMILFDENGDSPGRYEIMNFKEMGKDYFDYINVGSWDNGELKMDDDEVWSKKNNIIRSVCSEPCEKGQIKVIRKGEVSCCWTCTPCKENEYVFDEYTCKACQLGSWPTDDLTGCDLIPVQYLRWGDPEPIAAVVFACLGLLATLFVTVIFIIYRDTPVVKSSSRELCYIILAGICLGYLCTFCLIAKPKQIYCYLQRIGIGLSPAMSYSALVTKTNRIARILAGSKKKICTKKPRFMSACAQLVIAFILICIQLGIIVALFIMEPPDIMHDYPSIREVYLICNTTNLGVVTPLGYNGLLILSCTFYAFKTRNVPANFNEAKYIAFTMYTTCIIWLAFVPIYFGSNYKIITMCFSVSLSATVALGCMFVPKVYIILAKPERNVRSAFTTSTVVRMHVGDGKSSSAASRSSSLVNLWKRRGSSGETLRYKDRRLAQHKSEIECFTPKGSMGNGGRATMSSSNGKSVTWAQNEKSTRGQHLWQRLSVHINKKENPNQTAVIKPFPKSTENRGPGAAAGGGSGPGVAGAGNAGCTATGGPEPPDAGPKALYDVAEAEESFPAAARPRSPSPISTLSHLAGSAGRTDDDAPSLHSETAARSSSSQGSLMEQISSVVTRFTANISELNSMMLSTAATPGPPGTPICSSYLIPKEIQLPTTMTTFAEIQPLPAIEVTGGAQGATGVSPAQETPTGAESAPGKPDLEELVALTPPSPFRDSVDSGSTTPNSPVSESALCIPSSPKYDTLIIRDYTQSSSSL

[3] = test system: Plasma; experiment: (§2) Fraction unbound in human plasma; type: ADME, cell-free
[4] = test system: Plasma; experiment: (§3) Fraction unbound in rat plasma; type: ADME, cell-free
[5] = test system: Plasma; experiment: Stability in human plasma at 37 degC after 4 hrs; type: ADME, cell-free
[6] = test system: Plasma; experiment: Stability in rat plasma at 37 degC after 4 hrs; type: ADME, cell-free
[7] = target: Metabotropic glutamate receptor 3 (Homo sapiens) (UniProt Q14832); experiment: Positive allosteric modulation of human mGlu3 receptor
Chain of Metabotropic glutamate receptor 3 (Homo sapiens) (Q14832 23-879 limits assumed): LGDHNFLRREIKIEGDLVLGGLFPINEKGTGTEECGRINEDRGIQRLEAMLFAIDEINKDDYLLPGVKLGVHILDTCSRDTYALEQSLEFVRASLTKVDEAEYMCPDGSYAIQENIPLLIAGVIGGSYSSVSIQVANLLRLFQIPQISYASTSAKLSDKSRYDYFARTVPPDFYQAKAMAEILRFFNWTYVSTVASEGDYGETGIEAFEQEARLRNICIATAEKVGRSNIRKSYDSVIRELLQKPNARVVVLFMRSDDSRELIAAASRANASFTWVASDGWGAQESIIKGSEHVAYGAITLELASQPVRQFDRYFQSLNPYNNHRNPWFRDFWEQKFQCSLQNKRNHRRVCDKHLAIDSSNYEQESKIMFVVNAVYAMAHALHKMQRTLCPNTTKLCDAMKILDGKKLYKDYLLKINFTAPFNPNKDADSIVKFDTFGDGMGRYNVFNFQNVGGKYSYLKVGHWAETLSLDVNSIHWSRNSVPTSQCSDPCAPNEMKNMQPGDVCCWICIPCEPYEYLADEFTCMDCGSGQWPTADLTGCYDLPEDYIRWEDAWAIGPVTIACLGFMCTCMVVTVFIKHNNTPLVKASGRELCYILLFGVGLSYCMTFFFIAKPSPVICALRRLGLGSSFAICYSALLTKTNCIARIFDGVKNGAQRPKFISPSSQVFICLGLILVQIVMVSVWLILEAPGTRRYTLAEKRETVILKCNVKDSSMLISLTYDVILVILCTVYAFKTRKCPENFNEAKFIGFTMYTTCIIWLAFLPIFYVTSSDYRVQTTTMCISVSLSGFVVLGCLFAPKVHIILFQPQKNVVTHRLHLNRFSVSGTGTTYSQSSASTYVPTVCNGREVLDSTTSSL

[8] = target: Metabotropic glutamate receptor 6 (Rattus norvegicus) (UniProt P35349); experiment: Positive allosteric modulation of rat mGlu6 receptor
[9] = as §2; type: ADME, cell-free
[10] = target: Metabotropic glutamate receptor 1 (Rattus norvegicus) (UniProt P23385); experiment: Positive allosteric modulation of rat mGlu1 receptor
[11] = target: Metabotropic glutamate receptor 7 (Rattus norvegicus) (UniProt P35400); experiment: Positive allosteric modulation of rat mGlu7 receptor
Chain of Metabotropic glutamate receptor 7 (Rattus norvegicus) (P35400 whole entry): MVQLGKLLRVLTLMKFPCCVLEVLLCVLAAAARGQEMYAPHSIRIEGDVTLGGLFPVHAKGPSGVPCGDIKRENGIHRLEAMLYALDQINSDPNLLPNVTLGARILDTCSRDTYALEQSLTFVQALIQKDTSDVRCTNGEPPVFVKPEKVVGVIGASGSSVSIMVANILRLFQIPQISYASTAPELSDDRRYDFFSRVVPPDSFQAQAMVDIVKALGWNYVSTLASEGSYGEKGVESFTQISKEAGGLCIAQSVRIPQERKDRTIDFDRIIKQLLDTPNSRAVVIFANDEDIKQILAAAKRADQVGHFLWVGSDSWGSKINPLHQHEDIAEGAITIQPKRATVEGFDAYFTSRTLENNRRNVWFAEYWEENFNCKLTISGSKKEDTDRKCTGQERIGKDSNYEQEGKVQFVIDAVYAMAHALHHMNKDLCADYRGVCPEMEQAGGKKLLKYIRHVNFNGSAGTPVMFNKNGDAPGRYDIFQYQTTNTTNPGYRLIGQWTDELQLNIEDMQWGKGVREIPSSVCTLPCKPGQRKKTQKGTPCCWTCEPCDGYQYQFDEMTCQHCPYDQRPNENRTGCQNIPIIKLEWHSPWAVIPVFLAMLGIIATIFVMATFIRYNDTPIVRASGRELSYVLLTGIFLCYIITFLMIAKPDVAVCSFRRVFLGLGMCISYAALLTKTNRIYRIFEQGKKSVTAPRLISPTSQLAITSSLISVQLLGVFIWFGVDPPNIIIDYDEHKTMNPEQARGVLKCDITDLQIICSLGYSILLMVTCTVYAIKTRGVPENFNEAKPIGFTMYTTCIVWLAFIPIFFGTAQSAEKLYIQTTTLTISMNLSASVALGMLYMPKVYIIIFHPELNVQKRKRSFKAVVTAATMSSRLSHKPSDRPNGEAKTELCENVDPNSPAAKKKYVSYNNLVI

[12] = target: Metabotropic glutamate receptor 2 (Homo sapiens) (UniProt Q14416); experiment: Positive allosteric modulation of human mGlu2 receptor
[13] = target: Metabotropic glutamate receptor 3 (Rattus norvegicus) (UniProt P31422); experiment: Positive allosteric modulation of rat mGlu3 receptor
[14] = as §3; type: ADME, cell-free
[15] = target: Metabotropic glutamate receptor 7 (Homo sapiens) (UniProt Q14831); experiment: Positive allosteric modulation of human mGlu7 receptor
Chain of Metabotropic glutamate receptor 7 (Homo sapiens) (Q14831 whole entry): as the sequence (P35400 whole entry) above, with G5R, V27A, H454N, T488S, S520A, N578D counted along it

[16] = target: Metabotropic glutamate receptor 2 (Rattus norvegicus) (UniProt P31421); experiment: Positive allosteric modulation of rat mGlu2 receptor
[17] = target: T1, Cytochrome P450 1A2 (Homo sapiens, UniProt P05177); experiment: Inhibition of CYP1A2 (unknown origin); type: ADME
T1 sequence (P05177 whole entry): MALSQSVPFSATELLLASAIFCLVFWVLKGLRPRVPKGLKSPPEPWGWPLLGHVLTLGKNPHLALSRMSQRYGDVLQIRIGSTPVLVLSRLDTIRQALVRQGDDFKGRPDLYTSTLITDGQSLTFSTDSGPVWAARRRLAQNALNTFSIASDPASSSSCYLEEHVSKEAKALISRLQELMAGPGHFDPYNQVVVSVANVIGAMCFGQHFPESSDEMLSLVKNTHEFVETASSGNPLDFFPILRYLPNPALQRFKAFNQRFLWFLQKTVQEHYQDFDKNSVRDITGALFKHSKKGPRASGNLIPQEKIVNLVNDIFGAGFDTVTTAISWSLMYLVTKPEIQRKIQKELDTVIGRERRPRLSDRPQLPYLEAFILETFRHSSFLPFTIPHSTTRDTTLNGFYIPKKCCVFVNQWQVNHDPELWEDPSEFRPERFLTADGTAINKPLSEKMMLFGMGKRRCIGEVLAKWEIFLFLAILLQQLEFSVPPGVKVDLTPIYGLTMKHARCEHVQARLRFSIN

[18] = target: Metabotropic glutamate receptor 6 (Homo sapiens) (UniProt O15303); experiment: Positive allosteric modulation of human mGlu6 receptor
[19] = target: Metabotropic glutamate receptor 8 (Homo sapiens) (UniProt O00222); experiment: Positive allosteric modulation of human mGlu8 receptor
[20] = target: Metabotropic glutamate receptor 1 (Homo sapiens) (UniProt Q13255); experiment: Positive allosteric modulation of human mGlu1 receptor
[21] = target: Cytochrome P450 2D6 (Homo sapiens, UniProt P10635); experiment: Inhibition of CYP2D6 (unknown origin); type: ADME
[22] = target: Cytochrome P450 3A4 (Homo sapiens, UniProt P08684); experiment: Inhibition of CYP3A4 (unknown origin); type: ADME
Chain of Cytochrome P450 3A4 (P08684 whole entry): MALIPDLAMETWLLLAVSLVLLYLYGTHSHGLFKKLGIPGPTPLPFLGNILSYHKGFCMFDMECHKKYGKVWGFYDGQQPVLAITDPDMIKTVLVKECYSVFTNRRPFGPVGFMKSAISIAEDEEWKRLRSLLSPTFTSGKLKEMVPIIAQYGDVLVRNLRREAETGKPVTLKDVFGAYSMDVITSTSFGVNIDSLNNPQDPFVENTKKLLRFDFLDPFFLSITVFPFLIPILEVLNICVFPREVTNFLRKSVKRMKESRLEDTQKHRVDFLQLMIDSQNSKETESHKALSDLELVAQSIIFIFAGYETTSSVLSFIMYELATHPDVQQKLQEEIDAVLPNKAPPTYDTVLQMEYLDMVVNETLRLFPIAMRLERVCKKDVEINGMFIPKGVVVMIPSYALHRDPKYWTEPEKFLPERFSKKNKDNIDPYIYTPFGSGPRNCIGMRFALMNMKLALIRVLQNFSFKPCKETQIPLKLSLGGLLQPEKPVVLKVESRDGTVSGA

[23] = target: Cytochrome P450 2C9 (Homo sapiens, UniProt P11712); experiment: Inhibition of CYP2C9 (unknown origin); type: ADME
[24] = target: Metabotropic glutamate receptor 8 (Rattus norvegicus) (UniProt P70579); experiment: Positive allosteric modulation of rat mGlu8 receptor
[25] = target: Metabotropic glutamate receptor 5 (Rattus norvegicus) (UniProt P31424); experiment: as §1; type: cell-based

Chain of Metabotropic glutamate receptor 5 (P31424 whole entry): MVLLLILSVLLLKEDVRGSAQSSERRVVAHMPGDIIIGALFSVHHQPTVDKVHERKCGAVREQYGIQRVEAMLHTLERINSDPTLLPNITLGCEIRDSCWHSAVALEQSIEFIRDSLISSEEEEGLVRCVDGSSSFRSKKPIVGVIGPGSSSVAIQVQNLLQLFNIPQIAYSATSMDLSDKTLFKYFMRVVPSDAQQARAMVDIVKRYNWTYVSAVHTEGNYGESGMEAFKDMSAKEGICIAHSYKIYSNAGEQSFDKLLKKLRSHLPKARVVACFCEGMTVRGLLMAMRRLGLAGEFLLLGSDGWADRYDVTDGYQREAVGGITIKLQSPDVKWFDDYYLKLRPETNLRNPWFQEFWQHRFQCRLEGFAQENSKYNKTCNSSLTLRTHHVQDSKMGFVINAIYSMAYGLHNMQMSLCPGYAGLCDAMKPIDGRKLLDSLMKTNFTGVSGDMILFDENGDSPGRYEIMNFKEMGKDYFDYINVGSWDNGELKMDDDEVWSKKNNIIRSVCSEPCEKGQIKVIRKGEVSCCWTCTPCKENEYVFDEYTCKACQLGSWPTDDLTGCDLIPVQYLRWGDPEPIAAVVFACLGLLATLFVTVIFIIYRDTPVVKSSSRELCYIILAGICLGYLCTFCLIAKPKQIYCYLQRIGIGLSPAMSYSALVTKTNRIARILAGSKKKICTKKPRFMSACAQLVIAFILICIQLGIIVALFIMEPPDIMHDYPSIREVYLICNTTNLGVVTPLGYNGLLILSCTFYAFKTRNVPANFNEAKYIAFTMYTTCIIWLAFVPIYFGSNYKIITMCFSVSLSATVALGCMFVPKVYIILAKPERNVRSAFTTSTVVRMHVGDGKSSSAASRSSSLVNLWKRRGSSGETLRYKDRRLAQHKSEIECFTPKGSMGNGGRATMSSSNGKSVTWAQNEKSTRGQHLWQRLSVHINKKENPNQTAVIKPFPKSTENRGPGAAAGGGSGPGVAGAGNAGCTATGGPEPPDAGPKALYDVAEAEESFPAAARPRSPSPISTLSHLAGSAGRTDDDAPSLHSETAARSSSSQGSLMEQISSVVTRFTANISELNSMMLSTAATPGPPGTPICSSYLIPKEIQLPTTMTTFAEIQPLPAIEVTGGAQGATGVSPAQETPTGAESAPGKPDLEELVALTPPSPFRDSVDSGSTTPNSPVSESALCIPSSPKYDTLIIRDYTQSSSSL

Structure (SMILES)	EC50 [1]	Activity [2]	other results
c1ccc(OCc2cc3n(n2)CCCC3NC2CC2)cc1 (stereo not drawn)	1800 nM	50%	
OC1CCCn2nc(COc3ccccc3)cc21 (stereo not drawn)	2010 nM	47%	
NC1CCCn2nc(COc3ccccc3)cc21 (stereo not drawn)	> 10000 nM	45%	
O=C1CCCc2nc(COc3ccccc3)sc21	441 nM	65%	
COC1c2cc(COc3ccccc3)nn2CCC1(C)C (stereo not drawn)	796 nM	75%	
Fc1cccc(CNC2CCCn3nc(COc4ccccc4)cc32)c1 (stereo not drawn)	275 nM	75%	
Fc1ccc(CNC2CCCn3nc(COc4ccccc4)cc32)cc1 (stereo not drawn)	316 nM	69%	
c1ccc(OCc2cc3n(n2)CCCC3OCC2CC2)cc1 (stereo not drawn)	2520 nM	43%	
COc1ccccc1C1CCn2nc(COc3ccccc3)cc2C1=O (stereo not drawn)	43 nM	68%	
CC1(c2ccc(F)cc2)CCn2nc(COc3ccccc3)cc2C1=O (stereo not drawn)	228 nM	58%	
CCCCC1(O)CCCn2nc(COc3ccccc3)cc21 (stereo not drawn)	1820 nM	44%	
Clc1ccc(CNC2CCCn3nc(COc4ccccc4)cc32)cc1 (stereo not drawn)	637 nM	65%	
O=C1c2cc(OCc3ccccc3)nn2CCC1c1ccc(F)cc1 (stereo not drawn)	95 nM	48%	
c1ccc(CNC2CCCn3nc(COc4ccccc4)cc32)cc1 (stereo not drawn)	632 nM	74%	Fu [3]: 0.02%; Fu [4]: 0.03%
CC1CCn2nc(COc3ccccc3)cc2C1(C)O (stereo not drawn)	1680 nM	39%	
O=C1CCCn2nc(COc3ccccc3)cc21	129 nM	66%	Stability [5]: Stable; Stability [6]: Stable; Activity [7]: > 10 µM; Activity [8]: > 10 µM; fraction unbound [9]: 0.23; Activity [10]: > 10 µM; Activity [11]: > 10 µM; Activity [12]: > 10 µM; Activity [13]: > 10 µM; fraction unbound [14]: 0.21; Activity [15]: > 10 µM; Activity [16]: > 10 µM; IC50 [17]: 6200 nM; Activity [18]: > 10 µM; Activity [19]: > 10 µM; Activity [20]: > 10 µM; inhibition (INH) [21]: Active; inhibition (INH) [22]: Active; inhibition (INH) [23]: Active; Activity [24]: > 10 µM
O=C1c2cc(COc3ccccc3)nn2CCC1(Cc1ccccc1)Cc1ccccc1	> 10000 nM	37%	
CC(C)N1CCN(C2CCCn3nc(COc4ccccc4)cc32)CC1 (stereo not drawn)	870 nM	71%	
COc1ccc(CNC2CCCn3nc(COc4ccccc4)cc32)cc1 (stereo not drawn)	290 nM	60%	
O=C1c2cc(COc3ccccc3)nn2CCC1c1ccc(F)cc1 (stereo not drawn)	35 nM	66%	fraction unbound [9]: 0.008; fraction unbound [14]: 0.032
OC1(C(F)(F)F)CCCn2nc(COc3ccccc3)cc21 (stereo not drawn)	3780 nM	54%	

Structure (SMILES)	EC50 [1]	Activity [2]	other results
CC1(C)CCn2nc(COc3ccccc3)cc2C1NCc1ccccc1 (stereo not drawn)	3620 nM	65%	
OC1(c2ccccc2)CCCn2nc(COc3ccccc3)cc21 (stereo not drawn)	1200 nM	49%	
CC1CCn2nc(COc3ccccc3)cc2C1=O (stereo not drawn)	285 nM	76%	
c1ccc(OCc2cc3n(n2)CCCC3NCc2ccncc2)cc1 (stereo not drawn)	2570 nM	68%	
c1ccc(NC2CCCn3nc(COc4ccccc4)cc32)cc1 (stereo not drawn)	269 nM	62%	
COc1ccccc1C1(C)CCn2nc(COc3ccccc3)cc2C1=O (stereo not drawn)	654 nM	52%	
CC1(C)CCn2nc(COc3ccccc3)cc2C1OCc1ccccc1 (stereo not drawn)	2320 nM	64%	
c1ccc(CNC2CCCn3nc(OCc4ccccc4)cc32)cc1 (stereo not drawn)	618 nM	48%	
O=C1c2cc(COc3ccccc3)nn2CCC1Cc1ccccc1 (stereo not drawn)	124 nM	73%	
O=C1c2cc(COc3ccccc3)nn2CCC12CCCC2	48 nM	60%	
c1ccc(OCc2cc3n(n2)CCCC3N2CCOCC2)cc1 (stereo not drawn)	2360 nM	52%	
c1ccc(COC2CCCn3nc(COc4ccccc4)cc32)cc1 (stereo not drawn)	989 nM	70%	
c1ccc(OCc2cc3n(n2)CCCC3NCc2cccnc2)cc1 (stereo not drawn)	2840 nM	59%	
CC1(C)CCn2nc(COc3ccccc3)cc2C1=O	86 nM	70%	fraction unbound [9]: 0.1; fraction unbound [14]: 0.07; IC50 [17]: 7300 nM
CC1(C)CCn2nc(OCc3ccccc3)cc2C1=O	228 nM	56%	
O=C1CCCn2nc(OCc3ccccc3)cc21			Activity [25]: inactive
CC1(C)CCn2nc(COc3ccccc3)cc2C1O (stereo not drawn)	4410 nM	60%	
COC1CCCn2nc(COc3ccccc3)cc21 (stereo not drawn)	2910 nM	43%	
FC1(F)CCCn2nc(COc3ccccc3)cc21	625 nM	52%	
CN(Cc1ccccc1)C1CCCn2nc(COc3ccccc3)cc21 (stereo not drawn)	686 nM	71%	
